Here are results for 18 compounds from patent US20260015360A1 (MOMA Therapeutics, Inc., priority 2023, published 2026).

Like-named read-outs stand apart in the source and are kept apart here.

Test [1] addresses T1, biotinylated Avi-POLΘ[2-894] (Homo sapiens, UniProt O75417).
T1 construct: 1 nM biotinylated Avi-POLΘ[2-894]
The test can be described thus: ATPase assay (ADP-Glo): POLΘ-mediated ATP hydrolysis. Conditions: read-out: Biochemical ATPase ADPGlo IC50. Background: ADP-Glo first removes unused ATP, then detects ADP through luciferase.

The subject of a further test is DLD1 BRCA2 (−/−) cells. As to the kind of experiment: DLD1 viability assay (CellTiter-Glo, 7 days), DLD1 BRCA2 (−/−). In kind it is cell-based. The settings on record: read-out: Viability IC50 (μM) DLD1 BRCA2 null. A general note: In ATP-based viability assays light output follows the ATP content of the culture.
For another test, the system named is DLD1 WT cells. As to the kind of experiment: DLD1 viability assay (CellTiter-Glo, 7 days), DLD1 WT. It is filed as cell-based.

T1 sequence (O75417 2-894 limits assumed): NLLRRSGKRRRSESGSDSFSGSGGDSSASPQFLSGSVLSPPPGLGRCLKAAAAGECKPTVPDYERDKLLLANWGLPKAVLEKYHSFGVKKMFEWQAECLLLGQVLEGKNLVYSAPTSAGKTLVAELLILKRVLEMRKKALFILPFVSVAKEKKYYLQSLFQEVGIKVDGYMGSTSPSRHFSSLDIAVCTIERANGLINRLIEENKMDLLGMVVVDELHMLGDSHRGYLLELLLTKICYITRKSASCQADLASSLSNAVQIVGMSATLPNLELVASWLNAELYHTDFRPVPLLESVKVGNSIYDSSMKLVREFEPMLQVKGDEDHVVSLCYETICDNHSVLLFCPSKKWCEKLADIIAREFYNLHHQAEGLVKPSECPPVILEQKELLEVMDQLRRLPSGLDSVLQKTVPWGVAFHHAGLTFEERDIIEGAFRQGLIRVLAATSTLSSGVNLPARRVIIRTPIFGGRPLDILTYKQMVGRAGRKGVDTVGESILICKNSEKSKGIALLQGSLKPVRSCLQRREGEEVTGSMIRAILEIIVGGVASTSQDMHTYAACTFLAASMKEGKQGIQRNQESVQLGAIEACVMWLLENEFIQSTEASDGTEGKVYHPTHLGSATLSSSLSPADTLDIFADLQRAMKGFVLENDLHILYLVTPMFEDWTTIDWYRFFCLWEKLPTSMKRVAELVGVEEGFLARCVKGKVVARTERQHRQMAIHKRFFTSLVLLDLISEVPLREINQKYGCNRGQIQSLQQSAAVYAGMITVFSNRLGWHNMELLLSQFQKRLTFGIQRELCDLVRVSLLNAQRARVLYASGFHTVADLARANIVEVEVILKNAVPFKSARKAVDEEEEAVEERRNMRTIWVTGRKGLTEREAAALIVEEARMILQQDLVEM

The term IC50 denotes the point on the concentration scale where inhibition reaches its midpoint. On to `COc1cnc(Cl)cc1-c1cc(C)ncc1C(=O)Nc1nc2ncc(C3CCOC3)cc2s1` (single isomer, unassigned) [Example 515, (R or S)-2′-chloro-5′-methoxy-6-methyl-N-(6-(tetrahydrofuran-3-yl)thiazolo[4,5-b]pyridin-2-yl)-[4,4′-bipyridine]-3-carboxamide], for which the IC50 in test [1] is 0.001 to 0.015 µM; in the test on DLD1 BRCA2 (−/−) cells (Homo sapiens, DLD-1, 168 h), 0.1 to 0.25 µM; in the test with DLD1 WT cells (Homo sapiens, DLD-1, 168 h), over 10 µM.

Turning to `COc1cnc(Cl)cc1-c1cc(C)ncc1C(=O)Nc1nn2cc(C(=O)N[C@H]3CC[C@H](O)C3)nc2s1` [Example 21], the half-maximal inhibitory concentration (IC50) in test [1] is 0.001 to 0.015 µM; in the test with DLD1 BRCA2 (−/−) cells, 0.5 to 2 µM; with DLD1 WT cells, over 10 µM.

With `COc1cnc(Cl)cc1-c1cc(C)ncc1C(=O)Nc1nn2cc(C(=O)N[C@@H]3CCCC[C@@H]3O)nc2s1` [Example 22], the results for the half-maximal inhibitory concentration (IC50) (in test [1]; with DLD1 BRCA2 (−/−) cells; with DLD1 WT cells) were 0.001 to 0.015 µM, over 2 µM and over 10 µM, respectively.

For `COc1ccccc1-c1cc(C)ncc1C(=O)Nc1nc2ncc(-c3ccnc(C)c3)cc2s1` [Example 87], the IC50 in test [1] was 0.001 to 0.015 µM; in the test with DLD1 BRCA2 (−/−) cells (Homo sapiens, DLD-1, 168 h), 0.25 to 0.5 µM; in the test on DLD1 WT cells (Homo sapiens, DLD-1, 168 h), over 10 µM.

`COc1ccccc1-c1cc(C)ncc1C(=O)Nc1nc2ccc(-c3ccccn3)cc2s1` [Example 121, 4-(2-methoxyphenyl)-6-methyl-N-(6-(pyridin-2-yl)benzo[d]thiazol-2-yl)nicotinamide]: the concentration for half-maximal inhibition (IC50) in test [1] fell in the range of 0.05 to 0.15 µM; with DLD1 BRCA2 (−/−) cells (Homo sapiens, DLD-1, 168 h) it was 0.5 to 2 µM; with DLD1 WT cells (Homo sapiens, DLD-1, 168 h) it was 0.001 to 2.5 µM.

Turning to `COc1cnc(Cl)cc1-c1cc(C)ncc1C(=O)Nc1nn2cc(C(=O)N[C@H]3CCOC3)nc2s1` [Example 291, (S)-2-(2′-chloro-5′-methoxy-6-methyl-[4,4′-bipyridine]-3-carboxamido)-N-(tetrahydrofuran-3-yl)imidazo[2,1-b][1,3,4]thiadiazole-6-carboxamide], the concentration for half-maximal inhibition (IC50) in test [1] is 0.001 to 0.015 µM; in the test on DLD1 BRCA2 (−/−) cells (Homo sapiens, DLD-1, 168 h), over 2 µM; in the test on DLD1 WT cells (Homo sapiens, DLD-1, 168 h) it was over 10 µM.

For `COc1cnc(Cl)cc1-c1cc(C)ncc1C(=O)Nc1nn2cc(C(=O)N[C@H]3C[C@@H](O)C3)nc2s1` [Example 308], the IC50 in test [1] was 0.001 to 0.015 µM; in the test on DLD1 BRCA2 (−/−) cells (Homo sapiens, DLD-1, 168 h), over 2 µM; in the test on DLD1 WT cells (Homo sapiens, DLD-1, 168 h), over 10 µM.

In the case of `COc1cnc(Cl)cc1-c1cc(C)ncc1C(=O)Nc1nc2ncc(N3CCO[C@H]4CCC[C@H]43)nc2s1` [Example 397, 2′-chloro-N-(6-((4aR,7aS)-hexahydrocyclopenta[b][1,4]oxazin-4(4aH)-yl)thiazolo[4,5-b]pyrazin-2-yl)-5′-methoxy-6-methyl-[4,4′-bipyridine]-3-carboxamide], the IC50 in test [1] was 0.001 to 0.015 µM; with DLD1 BRCA2 (−/−) cells (Homo sapiens, DLD-1, 168 h) it was 0.001 to 0.1 µM; in the test with DLD1 WT cells (Homo sapiens, DLD-1, 168 h), over 10 µM.

In the case of `COc1cnc(Cl)cc1-c1cc(C)ncc1C(=O)Nc1nc2ncc([C@H]3CC[C@H](C#N)CC3)nc2s1` [Example 454, 2′-chloro-N-(6-((1r,4r)-4-cyanocyclohexyl)thiazolo[4,5-b]pyrazin-2-yl)-5′-methoxy-6-methyl-[4,4′-bipyridine]-3-carboxamide], the IC50 is 0.001 to 0.015 µM in test [1]; 0.001 to 0.1 µM with DLD1 BRCA2 (−/−) cells (Homo sapiens, DLD-1, 168 h); over 10 µM with DLD1 WT cells (Homo sapiens, DLD-1, 168 h).

Consider `COc1cnc(Cl)cc1-c1cc(C)ncc1C(=O)Nc1nc2ncc([C@@H]3CC[C@H](CO)C3)nc2s1` [Example 499, 2′-chloro-N-(6-((1R,3S)-3-(hydroxymethyl)cyclopentyl)thiazolo[4,5-b]pyrazin-2-yl)-5′-methoxy-6-methyl-[4,4′-bipyridine]-3-carboxamide], for which the IC50 was 0.001 to 0.015 µM in test [1]; 0.1 to 0.25 µM in the test with DLD1 BRCA2 (−/−) cells (Homo sapiens, DLD-1, 168 h); over 10 µM in the test on DLD1 WT cells (Homo sapiens, DLD-1, 168 h).

As to `COc1cnc(Cl)cc1-c1cc(C)ncc1C(=O)Nc1nc2ncc(N3CCC(OC(F)F)CC3)nc2s1` [Example 502, 2′-chloro-N-(6-(4-(difluoromethoxy)piperidin-1-yl)thiazolo[4,5-b]pyrazin-2-yl)-5′-methoxy-6-methyl-[4,4′-bipyridine]-3-carboxamide], the IC50 in test [1] was 0.001 to 0.015 µM; in the test with DLD1 BRCA2 (−/−) cells (Homo sapiens, DLD-1, 168 h) it was 0.001 to 0.1 µM; in the test with DLD1 WT cells (Homo sapiens, DLD-1, 168 h), over 10 µM.

Regarding `COc1cnc(Cl)cc1-c1cc(C)ncc1C(=O)Nc1nc2ncc(N3CCC(O)(C(F)F)CC3)nc2s1` [Example 504, 2′-chloro-N-(6-(4-(difluoromethyl)-4-hydroxypiperidin-1-yl)thiazolo[4,5-b]pyrazin-2-yl)-5′-methoxy-6-methyl-[4,4′-bipyridine]-3-carboxamide], the IC50 in test [1] is 0.001 to 0.015 µM; in the test on DLD1 BRCA2 (−/−) cells (Homo sapiens, DLD-1, 168 h), 0.001 to 0.1 µM; in the test on DLD1 WT cells (Homo sapiens, DLD-1, 168 h), over 10 µM.

For the compound `COc1cnc(Cl)cc1-c1cc(C)ncc1C(=O)Nc1nc2ncc(N3CCC(CO)CC3)nc2s1` [Example 506, 2′-chloro-N-(6-(4-(hydroxymethyl)piperidin-1-yl)thiazolo[4,5-b]pyrazin-2-yl)-5′-methoxy-6-methyl-[4,4′-bipyridine]-3-carboxamide], the IC50 in test [1] is 0.001 to 0.015 µM; with DLD1 BRCA2 (−/−) cells (Homo sapiens, DLD-1, 168 h), 0.001 to 0.1 µM; with DLD1 WT cells (Homo sapiens, DLD-1, 168 h) it was over 10 µM.

Regarding `COc1nc2c(cc1-c1cc(C)ncc1C(=O)Nc1nc3ncc(-c4ccncc4)nc3s1)OCCN2C` [Example 507, 4-(6-methoxy-4-methyl-3,4-dihydro-2H-pyrido[3,2-b][1,4]oxazin-7-yl)-6-methyl-N-(6-(pyridin-4-yl)thiazolo[4,5-b]pyrazin-2-yl)nicotinamide], the IC50 in test [1] was 0.001 to 0.015 µM; in the test on DLD1 BRCA2 (−/−) cells (Homo sapiens, DLD-1, 168 h) it was 0.1 to 0.25 µM; in the test with DLD1 WT cells (Homo sapiens, DLD-1, 168 h), over 10 µM.

Consider `COc1cnc(Cl)cc1-c1cc(C)ncc1C(=O)Nc1nc2ncc(N3CCC(C)(O)CC3)nc2s1` [Example 509, 2′-chloro-N-(6-(4-hydroxy-4-methylpiperidin-1-yl)thiazolo[4,5-b]pyrazin-2-yl)-5′-methoxy-6-methyl-[4,4′-bipyridine]-3-carboxamide], for which the 50% inhibitory concentration (IC50) in test [1] was 0.001 to 0.015 µM; with DLD1 BRCA2 (−/−) cells (Homo sapiens, DLD-1, 168 h), 0.001 to 0.1 µM; in the test on DLD1 WT cells (Homo sapiens, DLD-1, 168 h), over 10 µM.

On to `COc1cnc(Cl)cc1-c1cc(C)ncc1C(=O)Nc1nc2ncc(N3CCC(O)(C(F)(F)F)CC3)nc2s1` [Example 511, 2′-chloro-N-(6-(4-hydroxy-4-(trifluoromethyl)piperidin-1-yl)thiazolo[4,5-b]pyrazin-2-yl)-5′-methoxy-6-methyl-[4,4′-bipyridine]-3-carboxamide], for which the IC50 in test [1] was in the range of 0.001 to 0.015 µM; with DLD1 BRCA2 (−/−) cells (Homo sapiens, DLD-1, 168 h), 0.001 to 0.1 µM; with DLD1 WT cells (Homo sapiens, DLD-1, 168 h), 2.5 to 5 µM.

`COc1cnc(Cl)cc1-c1cc(C)ncc1C(=O)Nc1nc2ncc(C3CCOCC3)nc2s1` [Example 512, 2′-chloro-5′-methoxy-6-methyl-N-(6-(tetrahydro-2H-pyran-4-yl)thiazolo[4,5-b]pyrazin-2-yl)-[4,4′-bipyridine]-3-carboxamide]: the concentration for half-maximal inhibition (IC50) in test [1] is 0.001 to 0.015 µM; in the test with DLD1 BRCA2 (−/−) cells (Homo sapiens, DLD-1, 168 h) it was 0.001 to 0.1 µM; in the test on DLD1 WT cells (Homo sapiens, DLD-1, 168 h), over 10 µM.

Regarding `COc1cnc(Cl)cc1-c1cc(C)ncc1C(=O)Nc1nc2ncc(N3CCC(OC)CC3)nc2s1` [Example 514, 2′-chloro-5′-methoxy-N-(6-(4-methoxypiperidin-1-yl)thiazolo[4,5-b]pyrazin-2-yl)-6-methyl-[4,4′-bipyridine]-3-carboxamide], the half-inhibitory concentration (IC50) was 0.001 to 0.015 µM in test [1]; 0.001 to 0.1 µM in the test on DLD1 BRCA2 (−/−) cells (Homo sapiens, DLD-1, 168 h); over 10 µM with DLD1 WT cells (Homo sapiens, DLD-1, 168 h).
